Results from patent publication US20260138992A1, “LUR[…] FORM AND METHOD FOR PREPARING SAME” (priority 2022, published 2026).
Like-named read-outs stand apart in the source and are kept apart here.

Key:
[1] = Observation of electrostatic properties of the crystal forms (glass bottle storage, weighing); assay type: physicochemical; settings: for electrostatic effect (sticking to scoop and weighing paper): during the weighing; for wall-hanging phenomenon: stored in a glass bottle
[2] = assay type: physicochemical; settings: for chemical stability (assessment in words) / physical stability (assessment in words): 10 days under long-term and accelerated conditions; for product purity: after 10 days at 25° C./60% RH and 40° C./75% RH; for purity: sealed and stored at −20° C. for 120 days
[3] = Applicant's experimental study of the stability of crystal Form A of CN114940682A; assay type: physicochemical
[4] = during its manipulation; cited from earlier work
[5] = Stability test of crystal form I of lurbinectedin (XRPD and HPLC purity after storage); assay type: physicochemical
[6] = 10 days under long-term (25° C./60% RH) and accelerated (40° C./75% RH) conditions
[7] = Group 6, sealed and stored at −20° C. for 120 days
[8] = Group 2, kept in dark, sealed, 2-8° C. for 12 months
[9] = Group 3, kept in dark, sealed, −20° C. for 20 months
[10] = stored at −20° C. in the dark and sealed, and at 2-8° C. in the dark and sealed

## COc1ccc2[nH]c3c(c2c1)CCN[C@]31CS[C@@H]2c3c(OC(C)=O)c(C)c4c(c3[C@H](COC1=O)N1[C@@H]2[C@H]2c3c(cc(C)c(OC)c3O)C[C@@H]([C@@H]1O)N2C)OCO4 [crystal form II, lurbinectedin]
[1]
  electrostatic effect (sticking to scoop and weighing paper): do not show electrostatic effect or the effect is not obvious
  wall-hanging phenomenon: no wall-hanging phenomenon or the phenomenon is not obvious
[2]; [6]
  XRPD crystal form: remained unchanged
[2]
  chemical stability (assessment in words): excellent
  physical stability (assessment in words): excellent
  product purity: above 99%
  purity: above 99%
[2]; Group 1, 0 day
  HPLC purity: 99.59%
[2]; Group 2, 25° C./60% RH-5 days
  HPLC purity: 99.40%
[2]; Group 3, 25° C./60% RH-10 days
  HPLC purity: 99.41%
[2]; Group 4, 40° C./75% RH-5 days
  HPLC purity: 99.41%
[2]; Group 5, 40° C./75% RH-10 days
  HPLC purity: 99.41%
[2]; [7]
  HPLC purity: 99.58%
[2]; sealed, −20° C. for 120 days
  XRPD crystal form: remained unchanged
[2]; sealed, −20° C. for 120 days, listed as Crystal form II
  XRPD crystal form: unchanged

## COc1ccc2[nH]c3c(c2c1)CCN[C@]31CS[C@@H]2c3c(OC(C)=O)c(C)c4c(c3[C@H](COC1=O)N1[C@@H]2[C@H]2c3c(cc(C)c(OC)c3O)C[C@@H]([C@@H]1O)N2C)OCO4 [crystal Form A, lurbinectedin]
[3]; at room temperature, converts into other crystal forms readily
  stability of the crystal form: highly unstable
[3]; at −20° C.
  stability of the crystal form: stable

## COc1ccc2[nH]c3c(c2c1)CCN[C@]31CS[C@@H]2c3c(OC(C)=O)c(C)c4c(c3[C@H](COC1=O)N1[C@@H]2[C@H]2c3c(cc(C)c(OC)c3O)C[C@@H]([C@@H]1O)N2C)OCO4 [Form A, lurbinectedin]
[4]
  static electricity: has static electricity

## COc1ccc2[nH]c3c(c2c1)CCN[C@]31CS[C@@H]2c3c(OC(C)=O)c(C)c4c(c3[C@H](COC1=O)N1[C@@H]2[C@H]2c3c(cc(C)c(OC)c3O)C[C@@H]([C@@H]1O)N2C)OCO4 [crystal form V, lurbinectedin]
[1]
  electrostatic effect (sticking to scoop and weighing paper): do not show electrostatic effect or the effect is not obvious
  wall-hanging phenomenon: no wall-hanging phenomenon or the phenomenon is not obvious

## COc1ccc2[nH]c3c(c2c1)CCN[C@]31CS[C@@H]2c3c(OC(C)=O)c(C)c4c(c3[C@H](COC1=O)N1[C@@H]2[C@H]2c3c(cc(C)c(OC)c3O)C[C@@H]([C@@H]1O)N2C)OCO4 [crystal form I, lurbinectedin]
[5]; Group 1, initial moment
  Crystal form of lurbinectedin (XRPD): crystal form I
  HPLC purity: 99.91%
[5]; [8]
  Crystal form of lurbinectedin (XRPD): crystal form I
  HPLC purity: 99.68%
[5]; [9]
  Crystal form of lurbinectedin (XRPD): crystal form I
  HPLC purity: 99.65%
[5]; stored at 2-8° C. or −20° C.
  time the crystal form remains stable: at least 12 months
[5]; [10]
  crystal form: remained unchanged
  product purity: above 99%
[1]
  electrostatic effect (sticking to scoop and weighing paper): do not show electrostatic effect or the effect is not obvious
  wall-hanging phenomenon: no wall-hanging phenomenon or the phenomenon is not obvious

## COc1ccc2[nH]c3c(c2c1)CCN[C@]31CS[C@@H]2c3c(OC(C)=O)c(C)c4c(c3[C@H](COC1=O)N1[C@@H]2[C@H]2c3c(cc(C)c(OC)c3O)C[C@@H]([C@@H]1O)N2C)OCO4 [crystal form III, lurbinectedin]
[1]
  electrostatic effect (sticking to scoop and weighing paper): do not show electrostatic effect or the effect is not obvious
  wall-hanging phenomenon: no wall-hanging phenomenon or the phenomenon is not obvious
[2]; [6]
  XRPD crystal form: remained unchanged
[2]
  chemical stability (assessment in words): excellent
  physical stability (assessment in words): excellent
  product purity: above 99%
  purity: above 99%
[2]; Group 1, 0 day
  HPLC purity: 99.61%
[2]; Group 2, 25° C./60% RH-5 days
  HPLC purity: 99.48%
[2]; Group 3, 25° C./60% RH-10 days
  HPLC purity: 99.42%
[2]; Group 4, 40° C./75% RH-5 days
  HPLC purity: 99.48%
[2]; Group 5, 40° C./75% RH-10 days
  HPLC purity: 99.37%
[2]; [7]
  HPLC purity: 99.60%
[2]; sealed, −20° C. for 120 days
  XRPD crystal form: remained unchanged
[2]; sealed, −20° C. for 120 days, listed as Crystal form III
  XRPD crystal form: unchanged

## COc1ccc2[nH]c3c(c2c1)CCN[C@]31CS[C@@H]2c3c(OC(C)=O)c(C)c4c(c3[C@H](COC1=O)N1[C@@H]2[C@H]2c3c(cc(C)c(OC)c3O)C[C@@H]([C@@H]1O)N2C)OCO4 [crystal form B, lurbinectedin, reference compound]
[1]
  electrostatic effect (sticking to scoop and weighing paper): obvious electrostatic effect
  wall-hanging phenomenon: exhibits wall-hanging phenomenon
[2]; [6]
  XRPD crystal form: remained unchanged
[2]; 10 days under long-term (25° C./60% RH) and accelerated (40° C./75% RH) conditions, listed as Crystal form B
  XRPD crystal form: unchanged for 10
[2]
  chemical stability (assessment in words): relatively poor
  physical stability (assessment in words): excellent
  product purity: decreased
  purity: above 99%
[2]; Group 1, 0 day
  HPLC purity: 99.62%
[2]; Group 2, 25° C./60% RH-5 days
  HPLC purity: 99.44%
[2]; Group 3, 25° C./60% RH-10 days
  HPLC purity: 99.05%
[2]; Group 4, 40° C./75% RH-5 days
  HPLC purity: 99.13%
[2]; Group 5, 40° C./75% RH-10 days
  HPLC purity: 99.24%
[2]; [7]
  HPLC purity: 99.60%
[2]; sealed, −20° C. for 120 days
  XRPD crystal form: remained unchanged
[2]; sealed, −20° C. for 120 days, listed as Crystal form B
  XRPD crystal form: unchanged

## COc1ccc2[nH]c3c(c2c1)CCN[C@]31CS[C@@H]2c3c(OC(C)=O)c(C)c4c(c3[C@H](COC1=O)N1[C@@H]2[C@H]2c3c(cc(C)c(OC)c3O)C[C@@H]([C@@H]1O)N2C)OCO4 [crystal form IV, lurbinectedin]
[1]
  electrostatic effect (sticking to scoop and weighing paper): do not show electrostatic effect or the effect is not obvious
  wall-hanging phenomenon: no wall-hanging phenomenon or the phenomenon is not obvious
[2]; [6]
  XRPD crystal form: remained unchanged
[2]
  chemical stability (assessment in words): excellent
  physical stability (assessment in words): excellent
  product purity: above 99%
  purity: above 99%
[2]; Group 1, 0 day
  HPLC purity: 99.90%
[2]; Group 2, 25° C./60% RH-5 days
  HPLC purity: 99.86%
[2]; Group 3, 25° C./60% RH-10 days
  HPLC purity: 99.74%
[2]; Group 4, 40° C./75% RH-5 days
  HPLC purity: 99.79%
[2]; Group 5, 40° C./75% RH-10 days
  HPLC purity: 99.78%
[2]; [7]
  HPLC purity: 99.91%
[2]; sealed, −20° C. for 120 days
  XRPD crystal form: remained unchanged
[2]; sealed, −20° C. for 120 days, listed as Crystal form IV
  XRPD crystal form: unchanged
